Assay results reported in patent publication US10189843B2, “Fused pyrazole derivative having autotaxin inhibitory activity” (The University of Tokyo, priority 2014, dated 2019).

Molecular target: T1, Human autotaxin enzyme (Homo sapiens, UniProt Q13822)
T1 construct: purchased R&D System
Assay: Evaluation of autotaxin inhibitor, Method C (18:0 Lyso PC substrate, choline assay, Resorufin fluorescence)
Type: biochemical
Conditions: Method C (Test Example 3), read-out: Inhibitory activity (enzyme inhibitory activity, IC50)
Summary of the method: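 Recombinant human autotaxin with compound and 200 μM 18:0 Lyso PC (stock) in Tris-HCl pH 7.5, NaCl, MgCl2, Triton X-100, 2 h RT. Released choline detected via choline oxidase/peroxidase/Amplex-type reagent, 20 min, resorufin fluorescence 531/598 nm; % inhibition vs no-compound and no-enzyme controls, concentration-response curve.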

| SMILES | IC50 [nM] |
| --- | --- |
| C[C@H]1CN(Cc2cccc(CC(=O)O)c2)C(=O)c2cc(-c3ccc(Cl)cc3)nn21 [Compound I-0163] | 100 to 1000 |
| CCCCCC1CN(CC(=O)N2CCCC2)C(=O)c2cc(-c3ccc(Cl)cc3)nn21 (centres unmarked) [Compound I-0097] | 100 to 1000 |
| CCCCC1CN(CC(=O)NCCc2cn[nH]c2)C(=O)c2cc(-c3ccc(Cl)cc3)nn21 (centres unmarked) [Compound I-0234] | 100 to 1000 |
| CCCCCC1CN(Cc2ccc(CC(=O)OC)cc2)C(=O)c2cc(-c3ccc(Cl)cc3)nn21 (centres unmarked) [Compound I-0143] | ≥ 1000 |
| CCCCCC1CN(CC(=O)Nc2ccccn2)C(=O)c2cc(-c3ccc(Cl)cc3)nn21 (centres unmarked) [Compound I-0073] | ≥ 1000 |
| CCCCC1CN(CC(=O)N2CCC[C@H]2C)C(=O)c2cc(-c3ccc(Cl)cc3)nn21 (some centres unmarked) [Compound I-0227] | 100 to 1000 |
| N#Cc1ccc(CN2CC(CC(F)(F)C(F)(F)C(F)(F)F)n3nc(-c4ccc(Cl)cc4)cc3C2=O)cc1 (centres unmarked) [Compound I-0186] | ≥ 1000 |
| CCCCC1CN(Cc2ncco2)C(=O)c2cc(-c3ccc(Cl)cc3)nn21 (centres unmarked) [Compound I-0260] | 100 to 1000 |
| CCCCC1CN(CC(=O)NCC(=O)NC)C(=O)c2cc(-c3ccc(Cl)cc3)nn21 (centres unmarked) [Compound I-0224] | 100 to 1000 |
| C[C@H]1CN(Cc2ccc(O)cc2)C(=O)c2cc(-c3ccc(Cl)cc3)nn21 [Compound I-0171] | ≥ 1000 |
| CCCCCC1CN(CC(=O)N2CCC(N(C)C)CC2)C(=O)c2cc(-c3ccc(Cl)cc3)nn21 (centres unmarked) [Compound I-0111] | ≥ 1000 |
| CC(=O)Nc1cc(Cl)cc(CO)c1-c1cc2n(n1)[C@@H](C)CN(Cc1ccc(C#N)cc1)C2=O [Compound I-0347] | 10 to 100 |
| CCOCC1CN(Cc2ccc(C#N)cc2)C(=O)c2cc(-c3ccc(Cl)cc3)nn21 (centres unmarked) [Compound I-0178] | 100 to 1000 |
| CCCOCC1CN(CC(=O)NCC(C)(C)O)C(=O)c2cc(-c3ccc(Cl)cc3)nn21 (centres unmarked) [Compound I-0252] | 10 to 100 |
| CCCCCC1CN(CC(=O)N2CCC(CO)CC2)C(=O)c2cc(-c3ccc(Cl)cc3)nn21 (centres unmarked) [Compound I-0096] | 100 to 1000 |
| CCCCC1CN(CC(=O)N(CC#N)CC#N)C(=O)c2cc(-c3ccc(Cl)cc3)nn21 (centres unmarked) [Compound I-0211] | 10 to 100 |
| CCCCC1CN(CC(=O)NCC(C)(C)O)C(=O)c2cc(-c3ccc(Cl)cc3)nn21 (centres unmarked) [Compound I-0229] | 100 to 1000 |
| CCCCCC1CN(CC(=O)Nc2ccccc2CC(=O)O)C(=O)c2cc(-c3ccc(Cl)cc3)nn21 (centres unmarked) [Compound I-0067] | 100 to 1000 |
| CCCCC1CN(CC(=O)N(CC)CCC#N)C(=O)c2cc(-c3ccc(Cl)cc3)nn21 (centres unmarked) [Compound I-0214] | 10 to 100 |
| CCOC(=O)CN1C[C@H](C)n2nc(-c3ccc(Cl)cc3)cc2C1=O [Compound I-0019] | ≥ 1000 |

Results, then the compound that gave them:

| IC50 [nM] | SMILES |
| --- | --- |
| 10 to 100 | CCCCCC1CN(CC(=O)N2CCC[C@H](C)C2)C(=O)c2cc(-c3ccc(Cl)cc3)nn21 (some centres unmarked) [Compound I-0080] |
| 10 to 100 | CCCCC1CN(CNC(=O)CC#N)C(=O)c2cc(-c3ccc(Cl)cc3)nn21 (centres unmarked) [Compound I-0289] |
| < 10 | C[C@H]1CN(CC(=O)N(C)CCC#N)C(=O)c2cc(-c3ccc(C#N)cc3NC(=O)C(F)(F)F)nn21 [Compound I-0354] |
| 10 to 100 | CCCCC1CN(CC(=O)N2CCC(C(=O)OC)CC2)C(=O)c2cc(-c3ccc(Cl)cc3)nn21 (centres unmarked) [Compound I-0279] |
| < 10 | CC(=O)Nc1cc(C#N)ccc1-c1cc2n(n1)[C@@H](C)CN(Cc1cccc(C(=O)O)c1)C2=O [Compound I-0344] |
| < 10 | CCCCC[C@@H]1CN(CC(=O)N2CCC(C(=O)O)CC2)C(=O)c2cc(-c3ccc(Cl)cc3)nn21 [Compound I-0313] |
| 10 to 100 | CCCCCC1CN(CC(=O)N2CCC[C@@H]2C)C(=O)c2cc(-c3ccc(Cl)cc3)nn21 (some centres unmarked) [Compound I-0075] |
| < 10 | N#Cc1ccc(CN2CC3CC/C=C/CC(=O)Nc4cc(Cl)ccc4-c4cc(n3n4)C2=O)cc1 (centres unmarked) [Compound I-0357] |
| < 10 | CCCCCC1CN(CC(=O)NC(CCC)C(=O)O)C(=O)c2cc(-c3ccc(Cl)cc3)nn21 (centres unmarked) [Compound I-0062] |
